According to patent US10828372B2, “Compositions and methods for the inhibition of fibrosis” (WISCONSIN ALUMNI RESEARCH FOUNDATION, priority 2017, dated 2020):
Entries after “also recorded” stand apart in the source; their conditions may differ. Where no end group is shown, it is not given here.

What was measured:
UUO kidneys = experiment: Unilateral Ureteral Obstruction (UUO) model of kidney fibrosis; format: in vivo, mouse; conditions: for decrease in CD45 staining (leukocyte infiltration) / decrease in collagens (picrosirius red birefringence): UUO kidney sections; for decrease of fibronectin deposition (immunohistochemistry): UUO kidneys, s.c. 0.3 mg per day, day 3 to day 9, vs saline; for qualitative H&E histology of UUO kidneys: compared to saline
Description: Unilateral Ureteral Obstruction model. […] All efforts were made to minimize suffering. […] PEGylated peptide equivalent amounts were based on peptide concentration.
Thus, the right, contralateral, kidney of each mouse was utilized as a control to the left UUO-treated kidney. The data from two cohorts of UUO-treated mice were combined for this study composed of the following groups (n): saline (n=5), PEG (n=4), FUD (n=5), PEG-FUD (n=8) and PEG-mFUD (n=3).
Histology and immunostaining: Paraffin-embedded tissues were sectioned at 4 μm and stained with H&E and Picrosirius Red, and IHC for fibronectin and CD45 for leukocytes. […] Staining for fibronectin was carried out using a rabbit polyclonal antibody to mouse fibronectin (RamFN) which was described in the art. RamFN diluted at 1:5000 required prior proteinase K antigen retrieval and was developed with ImmPRESS Rabbit Ig HRP. Staining for leukocytes was carried out using the pan leukocyte antibody rat anti-mouse CD45 (Leukocyte Common antigen, Ly-5, BD Pharmingen, clone 30-F11) at 1:100 after citrate pH 6.0 antigen retrieval and developed with ImmPRESS rat Ig HRP. RamFN and CD45 staining was counter stained with hematoxylin to demarcate nuclei.
Stained tissue sections were imaged using the 20× objective on an upright brightfield Nikon Eclipse 600 microscope. This microscope was also equipped with polarizer capabilities utilized to assess the birefringence of the picrosirius red-stained collagen fibers. Quantitation of birefringence or DAB product following development of HRP stains was carried out using Image J (Sun Microsystems.Ink) from 6 images from each mouse section obtained at random within the central cortical area and excluding large blood vessels and the kidney capsule.

[1] = system: EDA-containing fibronectin; experiment: Endogenous (cellular) fibronectin assembly assay, human fibroblasts (AH1F); format: cell-based; conditions: doses up to 500 nM; for IC50: endogenous EDA+-fibronectin, human fibroblasts, read-out: IC50 of fibronectin assembly inhibition
Chain of EDA-containing fibronectin (P02751 32-608 limits assumed): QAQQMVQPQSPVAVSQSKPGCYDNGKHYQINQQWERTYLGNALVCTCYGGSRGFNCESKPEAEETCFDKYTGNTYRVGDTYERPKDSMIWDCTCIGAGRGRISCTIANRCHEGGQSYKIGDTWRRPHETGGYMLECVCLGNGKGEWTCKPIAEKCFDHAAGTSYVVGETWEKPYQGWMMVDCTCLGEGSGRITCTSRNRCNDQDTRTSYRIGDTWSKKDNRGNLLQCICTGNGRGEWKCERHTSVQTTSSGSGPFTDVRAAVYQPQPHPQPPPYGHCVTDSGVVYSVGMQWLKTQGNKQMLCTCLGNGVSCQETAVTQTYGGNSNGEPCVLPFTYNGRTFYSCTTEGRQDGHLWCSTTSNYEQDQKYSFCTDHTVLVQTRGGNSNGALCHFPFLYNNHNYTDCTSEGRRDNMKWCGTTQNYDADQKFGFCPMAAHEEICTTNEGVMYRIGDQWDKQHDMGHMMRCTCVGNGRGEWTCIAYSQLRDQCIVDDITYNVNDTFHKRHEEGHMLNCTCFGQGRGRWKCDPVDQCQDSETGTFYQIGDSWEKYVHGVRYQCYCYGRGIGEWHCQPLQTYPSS
Description: Endogenous (cellular) fibronectin assembly assay: This immunochemical assay measures the ECM incorporation of EDA-containing fibronectin synthesized by human fibroblasts and human proximal tubular epithelial cells. Human proximal epithelial cells, HK-2 cells, were obtained from ATCC (CRL-2190). The EDA+ fibronectin is a splice variant synthesized and secreted by a variety of cells mostly during embryonic development and during wound healing, ECM remodeling, or fibrotic conditions in the adult. Fibroblasts (AH1F) were cultured in DMEM (Gibco) containing 10% fetal calf serum, and human proximal tubular epithelial cells (HK-2) were cultured in keratinocyte serum free medium (KSFM, containing pituitary extract and rEGF, Invitrogen/Thermo Fisher). Both media also contained 2.5 mM glutamine, 100 IU/ml penicillin, and 100 μg/ml streptomycin. Confluent cells were trypsinized and resuspended in DMEM containing 2% FCS in DMEM for AH1F cells or KSFM for HK-2 cells, at densities that allow delivery of 60,000 AH1F or 20,000 HK-2 cells in 90 μl per well in black-walled, flat transparent bottom 96-well plates. Cells were incubated for 2 h at 37° C. with 5% CO2 and checked microscopically for spreading and confluence. Peptides were then added in 10 μl volumes at 10-fold the desired final concentration. Cell monolayers in microplates were incubated overnight in a humidified 37° C., 5% CO2 chamber. After approximately 22 h, 10 μl of AlamarBlue® was added to the cell monolayers and incubated at 37° C. for 2 h to assess cell viability. Fluorescence of AlamarBlue® was read at 555 nm excitation and 585 nm emission. Microplates were washed twice with HBSS containing Ca^2+, Mg^2+ and 50 μl/well of 4% paraformaldehyde (PFA) in PBS was then added for 10 min at room temperature. […] Similar to the measurement of exogenous A488-FN fluorescence, A488-EDA fluorescence was read using microplate reader equipped with bottom-readout capabilities at 485 nm excitation and 525 nm emission. Fluorescence of wells to which A488-IgG was added, i.e., background green fluorescence from non-specific IgG binding and from the cell monolayer was subtracted from fluorescence values of wells incubated with A488-EDA. Data is presented for fibronectin fibrillogenesis or cell viability as percent of fluorescence values (AlexaFluor® 488 fluorescence or AlamarBlue®, respectively) for wells with no peptides.
To determine whether PEG-FUD retained its ability to inhibit fibronectin fibrillogenesis, PEG-FUD and FUD were compared in cell-based fibronectin matrix assembly assays. The ability of PEG-FUD to inhibit the incorporation of exogenous fibronectin derived from plasma and also of fibronectin endogenously produced by the cultured cells was measured, since fibrosis is likely to contain fibronectin from both sources. […]

Substance	decrease in CD45 staining (leukocyte infiltration) (UUO kidneys)	decrease in collagens (picrosirius red birefringence) (UUO kidneys)	decrease of fibronectin deposition (immunohistochemistry) (UUO kidneys)	qualitative H&E histology of UUO kidneys (UUO kidneys)	inhibition of assembly of cellular fibronectin by fibroblasts [1]	IC50 [1]
FUD: 49 amino acid FUD peptide, SEQ ID NO: 1, recombinantly expressed, His-tag removed; inhibitor of fibronectin fibrillogenesis (KDQSPLAGESGETEYITEVYGNQQNPVDIDKKLPNETGFSGNMVETEDT; human) [reference compound]	approximately 50%	about 50%	40%	greater eosinophilic staining	70%	~30 nM
PEG-FUD: PEGylated FUD prepared as in Example 1, PEG size not stated; approximately 27 kDa by mass spectrometry, likely the 20 kDa conjugate (KDQSPLAGESGETEYITEVYGNQQNPVDIDKKLPNETGFSGNMVETEDT; not fully specified (N-terminus); also: PEG size not given here)	approximately 50%	about 50%	70%	greater eosinophilic staining; also recorded: clearer tubular preservation and vascularized glomeruli	70%	~30 nM
